Patent US20230172204A1 (BASF SE, priority 2020, published 2023)

Tests used:
[1] = system: Phakopsora pachyrhizi (F129L); experiment: Protective control of soybean rust on soybeans (PHAKPA P2); type: in vivo; details: for % PHAKPA (F129L) Disease level P2 at 4 ppm: protective P2, 4 ppm; for % PHAKPA (F129L) Disease level P2 at 4 ppm / % PHAKPA (F129L) Disease level P2 at 16 ppm: soybean rust F129L; for % PHAKPA (F129L) Disease level P2 at 16 ppm: protective P2, 16 ppm; for PHAKPA (F129L) Disease level (%) P2 at 16 ppm / PHAKPA (F129L) Disease level (%) P2 at 4 ppm: P2 protective, % diseased leaf area
[2] = system: Phakopsora pachyrhizi (F129L); experiment: Protective control of soybean rust on soybeans (PHAKPA P6); type: in vivo; details: for % PHAKPA (F129L) Disease level P6 at 4 ppm: protective P6, 4 ppm; for % PHAKPA (F129L) Disease level P6 at 4 ppm / % PHAKPA (F129L) Disease level P6 at 16 ppm: soybean rust F129L; for % PHAKPA (F129L) Disease level P6 at 16 ppm: protective P6, 16 ppm; for PHAKPA (F129L) Disease level (%) P6 at 16 ppm / PHAKPA (F129L) Disease level (%) P6 at 4 ppm: P6 protective, % diseased leaf area

SMILES	% PHAKPA (F129L) Disease level P2 at 4 ppm [1] [%]	% PHAKPA (F129L) Disease level P2 at 16 ppm [1] [%]	% PHAKPA (F129L) Disease level P6 at 4 ppm [2] [%]	% PHAKPA (F129L) Disease level P6 at 16 ppm [2] [%]	PHAKPA (F129L) Disease level (%) P2 at 16 ppm [1] [%]	PHAKPA (F129L) Disease level (%) P6 at 16 ppm [2] [%]	PHAKPA (F129L) Disease level (%) P2 at 4 ppm [1] [%]	PHAKPA (F129L) Disease level (%) P6 at 4 ppm [2] [%]
COC=C(C(=O)OC)c1cccc(C)c1CON=C(C)c1ccccc1OC(F)(F)F [compound 462]	37	6	55	10				
CNC(=O)/C(=N/OC)c1cccc(C)c1CO/N=C(\C)c1cccc(F)c1C(F)(F)F [compound 326]	25	0	30	1				
CNC(=O)/C(=N/OC)c1cccc(C)c1CO/N=C(\C)c1cc(Br)cc(Br)c1 [compound 142]	19	5	26	5				
CO/N=C(/C(=O)OC)c1cccc(C)c1CO/N=C(\C)c1cccc(C#CC(F)(F)F)c1 [compound 52]	63	28	90	43				
COC=C(C(=O)OC)c1cccc(C)c1CON=C(C)c1ccc(OC(F)(F)F)cc1Cl [compound 463]	6	0	3	0				
CO/N=C(/C(=O)OC)c1cccc(C)c1CO/N=C(\C)c1ccc(OC(F)(F)F)cc1Cl [compound 268]	63	6	60	17				
CNC(=O)/C(=N/OC)c1cccc(C)c1CO/N=C(\C)c1ccccc1C#N [compound 225]	83	27	100	97				
CNC(=O)/C(=N/OC)c1cccc(C)c1CO/N=C(\C)c1c(F)ccc(C(F)(F)F)c1NC [compound 233]	100	57	87	27				
CNC(=O)/C(=N/OC)c1cccc(C)c1CO/N=C(\C)c1ccccc1C1(C)CC1 [compound 296]	100	40	100	83				
CNC(=O)/C(=N/OC)c1cccc(C)c1CO/N=C(\C)c1ccc(C#N)cc1C(F)(F)F [compound 424]	100	27	97	50				
CO/N=C(/C(=O)OC)c1cccc(C)c1CO/N=C(\C)c1c(F)cc(F)cc1C(F)(F)F [compound 360]	53	9	80	5				
CNC(=O)/C(=N/OC)c1cccc(C)c1CO/N=C(\C)c1cccc(-c2noc(C(F)(F)F)n2)c1 [Ex. 205]					1	1		
CO/N=C(/C(=O)OC)c1cccc(C)c1CO/N=C(\C)c1ccc(C)c(C)c1 [compound 137]	19	2	50	5				
CO/N=C(/C(=O)OC)c1cccc(C)c1CO/N=C(\C)c1ccccc1C1CC1 [compound 217]	97	53	93	100				
CNC(=O)/C(=N/OC)c1cccc(C)c1CO/N=C(\C)c1ccc(OC(F)(F)F)cc1OC(F)(F)F [compound 349]	97	50	97	35				
CO/N=C(/C(=O)OC)c1ccccc1CO/N=C(/c1ccc(Cl)cc1)C(F)F [reference compound]					100	90		
CNC(=O)/C(=N/OC)c1cccc(C)c1CO/N=C(\C)c1cccc(C(C)(F)F)c1 [compound 303]	2	0	12	0				
CO/N=C(/C(=O)OC)c1ccccc1CO/N=C(\C)c1cccc(Br)c1 [reference compound]					80	87		
CNC(=O)/C(=N/OC)c1cccc(C)c1CO/N=C(\C)c1cccc(Br)c1 [Ex. 58]	2	0	4	0			0	4

SMILES	% PHAKPA (F129L) Disease level P2 at 4 ppm [1] [%]	% PHAKPA (F129L) Disease level P2 at 16 ppm [1] [%]	% PHAKPA (F129L) Disease level P6 at 4 ppm [2] [%]	% PHAKPA (F129L) Disease level P6 at 16 ppm [2] [%]	PHAKPA (F129L) Disease level (%) P2 at 16 ppm [1] [%]	PHAKPA (F129L) Disease level (%) P6 at 16 ppm [2] [%]	PHAKPA (F129L) Disease level (%) P2 at 4 ppm [1] [%]	PHAKPA (F129L) Disease level (%) P6 at 4 ppm [2] [%]
CO/N=C(/C(=O)OC)c1cccc(C2CC2)c1CO/N=C(\C)c1cccc(C(F)(F)F)c1 [Ex. 10]	22	2	45	3				
CO/C=C(/C(=O)OC)c1ccccc1CO/N=C(\C)c1ccccc1C(F)(F)F [reference compound]					11	9		
CO/N=C(/C(=O)OC)c1cccc(C)c1CO/N=C(\CC(F)(F)F)c1cccc(C(F)(F)F)c1 [compound 250]	90	90	90	80				
CO/N=C(/C(=O)OC)c1cccc(C)c1CO/N=C(\C)c1ccccc1C [compound 115]	83	63	92	75				
CNC(=O)/C(=N/OC)c1cccc(C)c1CO/N=C(\C)c1ccc(-c2ccccc2)cc1C(F)(F)F [compound 413]	40	15	33	15				
CO/N=C(/C(=O)OC)c1cccc(C)c1CO/N=C(\C)c1cc(C(F)(F)F)ccc1F [compound 198]	4	1	0	0				
CNC(=O)/C(=N/OC)c1cccc(C)c1CO/N=C(\C)c1ccc(OC(F)(F)F)cc1F [compound 270]	3	0	0	1				
CO/N=C(/C(=O)OC)c1cccc(C)c1CO/N=C(\C)c1ccccc1OC(F)(F)F [compound 236]	97	77	97	100				
CO/N=C(/C(=O)OC)c1ccccc1CO/N=C(\C)c1ccc(C)cc1 [reference compound]					25	10		
CO/N=C(/C(=O)OC)c1cccc(C)c1CO/N=C(/c1ccc(F)cc1)C(F)F [Ex. 21]	100	77	97	88				
CO/N=C(/C(=O)OC)c1cccc(C)c1CO/N=C(\C)c1c(F)cccc1Cl [compound 283]	83	30	87	22				
CNC(=O)/C(=N/OC)c1ccccc1CO/N=C(\C)c1cc(Cl)cc(Cl)c1 [reference compound]							100	97
CNC(=O)/C(=N/OC)c1cccc(C)c1CO/N=C(\C)c1ccc(OC(F)(F)F)cc1C(F)(F)F [compound 363]	29	1	25	2				
CO/N=C(/C(=O)OC)c1cccc(C)c1CO/N=C(\C)c1cc(Br)cc(Br)c1 [compound 135]	15	1	16	2				
CNC(=O)/C(=N/OC)c1cccc(C)c1CO/N=C(\C)c1c(F)cc(F)cc1F [compound 170]	9	0	4	0				
CO/N=C(/C(=O)OC)c1cccc(C)c1CO/N=C(\C)c1ccc(Cl)c(Cl)c1C(F)(F)F [compound 429]	83	50	67	43				
CNC(=O)/C(=N/OC)c1cccc(C)c1CO/N=C(\C)c1cccc(-c2ccccc2)c1 [compound 98]	3	0	1	0				
CO/N=C(/C(=O)OC)c1cccc(C)c1CO/N=C(/c1ccc(Cl)cc1)C(F)F [Ex. 20]	73	29	97	18				
